Measured values published in ChEMBL document CHEMBL1212937, “Effect of synthetic peptides belonging to E2 envelope protein of GB virus C on human immunodeficiency virus type 1 infection” (J Med Chem, 2010).
One block for each compound: values may come before it. Peptide text beside a SMILES is read from it.

Key:
[1] = test system: Human immunodeficiency virus 1; experiment: Antiviral activity against R5 tropic HIV1 BAL infected in human TZM-bl cells assessed as inhibition of virus-induced cytopathic effect; assay type: functional, organism-based; conditions: for IC50: Human immunodeficiency virus 1, BAL
[2] = test system: Human immunodeficiency virus 1; experiment: Antiviral activity against R5 tropic HIV1 HXB2 infected in human TZM-bl cells assessed as inhibition of virus-induced cytopathic effect; assay type: functional, organism-based; conditions: for IC50: Human immunodeficiency virus 1, HXB2, TZM-bl
[3] = Inhibition of HIV1 gp41 fusion by surface plasmon resonance; set-up: species or system Human immunodeficiency virus 1
[4] = (§1) Inhibition of HIV1 gp41-induced cell-cell fusion between viral envolop expressing human HeLa cells to CD4 receptor expressing TZM-bl cells; assay type: cell-based, Human immunodeficiency virus 1
[5] = test system: HeLa; experiment: as §1; assay type: cell-based; conditions: Human immunodeficiency virus 1
[6] = test system: Human immunodeficiency virus 1; experiment: Inhibition of HIV1 gp41 fusion peptide at compound to fusion peptide ratio of 5 by fluorimetry
[7] = Inhibition of HIV1 gp41 fusion by isothermal titration; set-up: species or system Human immunodeficiency virus 1
[8] = test system: Human immunodeficiency virus 1; experiment: Antiviral activity against R5 tropic HIV1 BAL infected in human PBMC cells assessed as concentration at which p24 antigen produced after 7 days by ELISA; assay type: functional
[9] = test system: Human immunodeficiency virus 1; experiment: Antiviral activity against R5 tropic HIV1 HXB2 infected in human PBMC cells assessed as concentration at which p24 antigen produced after 7 days by ELISA; assay type: functional
[10] = test system: Human immunodeficiency virus 1; experiment: Antiviral activity against R5X4 tropic HIV1 69/7 infected in human TZM-bl cells assessed as inhibition of virus-induced cytopathic effect; assay type: functional, organism-based; conditions: for IC50: Human immunodeficiency virus 1, 69/7, TZM-bl

Compound: H-LVRRRSELMGRRNPVCPG-OH
Kd [3]: 22.4 µM | IC50 [4]: 538 µM | inhibition [5]: Dose-dependent effect | inhibition [6]: 46% | Kd [7]: 39.6 µM

Compound: H-WVNQLAVLGLPAVDAAVA-OH
inhibition [1]: Dose-dependent effect | IC50 [1]: 94.7 µM | inhibition [2]: Dose-dependent effect | Activity [8]: 15.6 µM | Activity [9]: 7.8 µM | IC50 [4]: 333 µM | inhibition [5]: Dose-dependent effect | inhibition [10]: Dose-dependent effect

Compound: CC[C@H](C)[C@H](NC(=O)[C@H](CS)NC(=O)[C@@H](NC(=O)[C@H](C)NC(=O)[C@H](CS)NC(=O)[C@@H]1CCCN1C(=O)[C@@H](NC(=O)CNC(=O)[C@H](Cc1c[nH]c2ccccc12)NC(=O)[C@H](CCC(=O)O)NC(=O)[C@H](CO)NC(=O)[C@H](CC(C)C)NC(=O)[C@H](CCC(=O)O)NC(=O)[C@@H](N)C(C)C)C(C)C)[C@@H](C)O)C(=O)N[C@@H](CC(C)C)C(=O)N[C@@H](CC(=O)O)C(=O)N[C@@H](CCCNC(=N)N)C(=O)N[C@@H](CCCNC(=N)N)C(=O)O (H-VELSEWGVPCATCILDRR-OH)
inhibition [1]: Dose-dependent effect | IC50 [1]: 140 µM | inhibition [2]: Dose-dependent effect | IC50 [2]: 58.6 µM | Activity [8]: 7.8 µM | Activity [9]: 7.8 µM | IC50 [4]: 331 µM | inhibition [5]: Dose-dependent effect | inhibition [10]: Dose-dependent effect | IC50 [10]: 20.1 µM

Compound: H-GRPDGFIHVQGHLQEVDA-OH
Kd [3]: 17.6 µM | inhibition [6]: 17.9% | Kd [7]: 20 µM

Compound: CC[C@H](C)[C@H](NC(=O)[C@H](C)NC(=O)[C@H](CCC(N)=O)NC(=O)[C@@H](CS)NC(=O)[C@H](Cc1ccccc1)NC(=O)[C@H](C)NC(=O)[C@@H]1CCCN1C(=O)[C@@H](N)CC(C)C)C(=O)NCC(=O)N[C@@H](Cc1c[nH]c2ccccc12)C(=O)NCC(=O)N[C@@H](CC(=O)O)C(=O)N1CCC[C@H]1C(=O)N[C@H](C(=O)N[C@H](C(=O)N[C@@H](Cc1cnc[nH]1)C(=O)N[C@@H](Cc1c[nH]c2ccccc12)C(=O)N[C@@H](CO)C(=O)O)[C@@H](C)O)[C@@H](C)CC
inhibition [1]: Dose-dependent effect | IC50 [1]: 194 µM | inhibition [2]: Dose-dependent effect | IC50 [2]: 46 µM | Activity [8]: 15.6 µM | Activity [9]: 15.6 µM | IC50 [4]: 370 µM | inhibition [5]: Dose-dependent effect | inhibition [10]: Dose-dependent effect | IC50 [10]: 71.4 µM

Compound: H-HGQNRWPLSCPQYVYGSV-OH
IC50 [5]: 304 µM | inhibition [5]: Dose-dependent effect

Compound: H-PITHWSHGQNRWPLSCPQ-OH
IC50 [4]: 509 µM | inhibition [5]: Dose-dependent effect

Compound: H-FCQAIGWGDPITHWSHGQ-OH
inhibition [1]: Dose-dependent effect | IC50 [1]: 126 µM | inhibition [2]: Dose-dependent effect | IC50 [2]: 70.1 µM | Activity [8]: 15.6 µM | Activity [9]: 7.8 µM | IC50 [4]: 348 µM | inhibition [5]: Dose-dependent effect | inhibition [10]: Dose-dependent effect | IC50 [10]: 111 µM

Compound: H-SDRDTVVELSEWGVPCAT-OH
inhibition [1]: Dose-dependent effect | IC50 [1]: 506 µM | inhibition [2]: Dose-dependent effect | IC50 [2]: 48.8 µM | Kd [3]: 58.6 µM | Activity [8]: 62.5 µM | Activity [9]: 31.2 µM | IC50 [4]: 141 µM | inhibition [5]: Dose-dependent effect | inhibition [6]: 59% | inhibition [10]: Dose-dependent effect | IC50 [10]: 43.7 µM | Kd [7]: 63.6 µM

Continued, in another order:

IC50 [1]: 0.136 µM | IC50 [2]: 0.175 µM
Compound: C[C@@H]1[C@H](O)[C@@H](C)/C=C/C=C/C=C/C=C/C=C/C=C/C=C/[C@H](O[C@@H]2O[C@H](C)[C@@H](O)[C@H](N)[C@@H]2O)C[C@@H]2O[C@](O)(C[C@@H](O)C[C@@H](O)[C@H](O)CC[C@@H](O)C[C@@H](O)CC(=O)O[C@H]1C)C[C@H](O)[C@H]2C(=O)O [AMPHOTERICIN B]

IC50 [4]: 530 µM | inhibition [6]: 56.3%
Compound: CC(C)C[C@H](NC(=O)[C@H](CC(=O)O)NC(=O)[C@H](CCCCN)NC(=O)[C@@H](NC(=O)[C@H](CC(C)C)NC(=O)[C@H](CCCCN)NC(=O)[C@@H]1CCCN1C(=O)CNC(=O)[C@H](C)NC(=O)CNC(=O)[C@H](CS)NC(=O)[C@H](CCCNC(=N)N)NC(=O)[C@H](Cc1cnc[nH]1)NC(=O)[C@H](Cc1ccccc1)NC(=O)[C@@H]1CCCN1C(=O)[C@H](Cc1ccccc1)NC(=O)[C@@H](N)CCCNC(=N)N)[C@H](C)O)C(=O)N[C@@H](CCC(=O)O)C(=O)O
inhibition [5]: Dose-dependent effect

IC50 [1]: 463 µM | IC50 [2]: 39.9 µM | IC50 [4]: 429 µM | IC50 [10]: 24.1 µM
Compound: CC[C@H](C)[C@H](NC(=O)[C@H](CS)NC(=O)[C@@H](NC(=O)[C@H](C)NC(=O)[C@H](CS)NC(=O)[C@@H]1CCCN1C(=O)[C@@H](NC(=O)CNC(=O)[C@H](Cc1c[nH]c2ccccc12)NC(=O)[C@H](CCC(=O)O)NC(=O)[C@H](CO)NC(=O)[C@H](CC(C)C)NC(=O)[C@H](CCC(=O)O)NC(=O)[C@@H](NC(=O)[C@@H](NC(=O)[C@@H](NC(=O)[C@@H](N)CC(=O)O)[C@@H](C)O)C(C)C)C(C)C)C(C)C)[C@@H](C)O)C(=O)N[C@@H](CC(C)C)C(=O)O (H-DTVVELSEWGVPCATCIL-OH)
inhibition [1]: Dose-dependent effect | inhibition [2]: Dose-dependent effect | Activity [8]: 31.2 µM | Activity [9]: 7.8 µM | inhibition [5]: Dose-dependent effect | inhibition [10]: Dose-dependent effect

IC50 [1]: 411 µM | IC50 [2]: 237 µM | IC50 [10]: 119 µM
Compound: H-SWFASTGGRDSKIDVWSL-OH
inhibition [1]: Dose-dependent effect | inhibition [2]: Dose-dependent effect | Activity [8]: 7.8 µM | Activity [9]: 62.5 µM | inhibition [10]: Dose-dependent effect

IC50 [1]: 484 µM | IC50 [2]: 162 µM | Kd [3]: 25.2 µM | IC50 [4]: 440 µM | inhibition [6]: 52.9% | IC50 [10]: 209 µM | Kd [7]: 33.3 µM
Compound: CC(C)C[C@H](NC(=O)[C@H](CC(C)C)NC(=O)[C@@H](NC(=O)[C@@H](NC(=O)[C@H](CC(N)=O)NC(=O)CNC(=O)[C@H](CCCNC(=N)N)NC(=O)[C@H](CC(=O)O)NC(=O)[C@H](Cc1c[nH]c2ccccc12)NC(=O)[C@@H](NC(=O)[C@H](CCCCN)NC(=O)[C@H](CCC(=O)O)NC(=O)CNC(=O)[C@@H](N)[C@@H](C)O)C(C)C)C(C)C)[C@@H](C)O)C(=O)N[C@@H](CS)C(=O)N[C@@H](CC(=O)O)C(=O)N[C@@H](CS)C(=O)N1CCC[C@H]1C(=O)O (H-TGEKVWDRGNVTLLCDCP-OH)
inhibition [1]: Dose-dependent effect | inhibition [2]: Dose-dependent effect | Activity [8]: 62.5 µM | Activity [9]: 31.2 µM | inhibition [5]: Dose-dependent effect | inhibition [10]: Dose-dependent effect

IC50 [1]: 295 µM | IC50 [2]: 37.5 µM | IC50 [4]: 687 µM | IC50 [10]: 60.8 µM
Compound: H-LQEVDAGNFIPPPRWLLL-OH
inhibition [1]: Dose-dependent effect | inhibition [2]: Dose-dependent effect | Activity [8]: 15.6 µM | Activity [9]: 7.8 µM | inhibition [5]: Dose-dependent effect | inhibition [10]: Dose-dependent effect
